Test results taken from patent US20060128738A1, “Treatment of interstitial cystitis using cannabinoid analogs” (Indevus Pharmaceuticals, Inc., priority 2004, published 2006).

Test system: cyclophosphamide-induced bladder overactivity
Assay: Subacute bladder irritation by cyclophosphamide, cystometrograms, i.v. administration
Type: in vivo
Conditions: CYP-treated rats, after administration
Protocol: Cystometrograms (CMGs) are performed under urethane anesthesia (1 g/kg s.c.) using a catheter inserted into the bladder through the bladder dome via a midline abdominal incision. Saline is infused at a rate of 0.04 ml/min to elicit repetitive bladder contractions. Effects of intravenous (i.v.) injection of cannabinoid analogs and analogs of (6aR,10aR)-Δ^8-Tetrahydrocannabinol-11-oic Acids on bladder overactivity induced by either intravesical administration of acetic acid solution or one day treatment with cyclophosphamide are investigated. […] Thus, these Compound analogs can be effective for the treatment of pain and urinary frequency symptoms in patients with painful bladder syndrome/interstitial cystitis.
One day after intraperitoneal injection of cyclophosphamide (CYP, 150 mg/kg), control CMGs are recorded for 1 to 2 hour prior to i.v. administration of Compound analog or vehicle. See, example i, above. Following administration of Compound analog, changes in cystometric parameters such as ICIs, MVP, PT and BP are recorded to evaluate the effects of Compound analog on cyclophosphamide-induced bladder overactivity.

CCCCCCC(C)(C)c1cc(O)c2c(c1)OC(C)(C)[C@@H]1CC=C(C(=O)O)C[C@@H]21 [IP-751]
No significant changes: change in baseline pressure (BP) | change in maximum voiding pressure (MVP) | change in pressure threshold (PT)
